Values belong to the molecule of their own block, whether it stands above or below them.
Experiments:
[1] = target: T1, human recombinant AT2 receptor (Homo sapiens, UniProt P50052); experiment: Binding to AT2 receptor, radiometric scintillation assay (Eurofins); conditions: ligand 125I CGP 42112A, tested at 1, 10, 100 and 1000 nM
T1 construct: purchased Eurofins ITEM26
T1 sequence (P50052 1-363): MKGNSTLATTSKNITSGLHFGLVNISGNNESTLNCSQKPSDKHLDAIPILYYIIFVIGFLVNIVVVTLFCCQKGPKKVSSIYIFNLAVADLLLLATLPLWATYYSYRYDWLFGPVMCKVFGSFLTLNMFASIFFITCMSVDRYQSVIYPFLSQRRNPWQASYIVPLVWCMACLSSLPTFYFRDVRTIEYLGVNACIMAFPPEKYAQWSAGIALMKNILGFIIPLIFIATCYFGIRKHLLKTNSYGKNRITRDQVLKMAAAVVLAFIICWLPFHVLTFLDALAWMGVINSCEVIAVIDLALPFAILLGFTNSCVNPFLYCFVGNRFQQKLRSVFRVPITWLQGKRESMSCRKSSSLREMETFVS
Protocol: (§1) Compounds were evaluated for binding to the human recombinant AT2 and AT1 receptor according to Eurofins protocol ITEM26 and ITEM24 using a radiometric scintillation assay.

[2] = target: T2, human recombinant AT1 receptor (Homo sapiens, UniProt P30556); experiment: Binding to AT1 receptor, radiometric scintillation assay (Eurofins); conditions: ligand 125I(sar1,Ile8)-AT-II, tested at 1 and 10 μM
T2 construct: purchased Eurofins ITEM24
T2 sequence (P30556 1-359): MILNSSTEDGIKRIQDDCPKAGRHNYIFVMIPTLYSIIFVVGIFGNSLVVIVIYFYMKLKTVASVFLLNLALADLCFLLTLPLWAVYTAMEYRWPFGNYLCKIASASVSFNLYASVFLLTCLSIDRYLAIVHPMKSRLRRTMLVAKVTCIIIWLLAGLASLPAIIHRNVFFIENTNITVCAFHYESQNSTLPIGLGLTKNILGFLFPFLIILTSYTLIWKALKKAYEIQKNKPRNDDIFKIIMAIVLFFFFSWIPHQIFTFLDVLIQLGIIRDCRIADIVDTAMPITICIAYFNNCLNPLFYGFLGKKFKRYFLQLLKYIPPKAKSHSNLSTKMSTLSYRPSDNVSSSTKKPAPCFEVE
Protocol: as §1

[3] = Metabolic hydrolysis found during development of C21; assay type: in vitro ADME; conditions: statement in background
CYP3A4 [4] = target: T3, CYP3A4 (Homo sapiens, UniProt P08684); experiment: CYP inhibition found during development of C21, CYP 3A4; assay type: in vitro ADME; conditions: statement in background
T3 sequence (P08684 whole entry): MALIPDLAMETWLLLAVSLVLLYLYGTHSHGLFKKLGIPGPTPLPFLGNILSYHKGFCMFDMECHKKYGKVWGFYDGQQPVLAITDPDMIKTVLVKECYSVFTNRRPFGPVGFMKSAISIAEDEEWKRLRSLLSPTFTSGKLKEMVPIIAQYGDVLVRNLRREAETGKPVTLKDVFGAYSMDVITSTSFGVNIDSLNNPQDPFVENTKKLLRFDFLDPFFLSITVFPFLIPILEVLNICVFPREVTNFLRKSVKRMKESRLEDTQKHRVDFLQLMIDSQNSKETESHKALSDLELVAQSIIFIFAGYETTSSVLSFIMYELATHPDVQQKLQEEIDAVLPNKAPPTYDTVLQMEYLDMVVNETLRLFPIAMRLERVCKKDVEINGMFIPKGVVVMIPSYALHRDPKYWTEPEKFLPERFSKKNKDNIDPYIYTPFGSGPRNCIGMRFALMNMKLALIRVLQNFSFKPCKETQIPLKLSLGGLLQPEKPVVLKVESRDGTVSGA

CYP2C9 [5] = target: T4, CYP2C9 (Homo sapiens, UniProt P11712); experiment: CYP inhibition in human liver microsomes, CYP2C9; assay type: in vitro ADME; parameters: incubated with human liver microsomes; tissue Eurofins ITEMG232; host or cells: human liver microsomes; conditions: substrate diclofenac; for inhibition at 10 µM: probe diclofenac, read-out: CYP2C9 Inh %
T4 sequence (P11712 whole entry): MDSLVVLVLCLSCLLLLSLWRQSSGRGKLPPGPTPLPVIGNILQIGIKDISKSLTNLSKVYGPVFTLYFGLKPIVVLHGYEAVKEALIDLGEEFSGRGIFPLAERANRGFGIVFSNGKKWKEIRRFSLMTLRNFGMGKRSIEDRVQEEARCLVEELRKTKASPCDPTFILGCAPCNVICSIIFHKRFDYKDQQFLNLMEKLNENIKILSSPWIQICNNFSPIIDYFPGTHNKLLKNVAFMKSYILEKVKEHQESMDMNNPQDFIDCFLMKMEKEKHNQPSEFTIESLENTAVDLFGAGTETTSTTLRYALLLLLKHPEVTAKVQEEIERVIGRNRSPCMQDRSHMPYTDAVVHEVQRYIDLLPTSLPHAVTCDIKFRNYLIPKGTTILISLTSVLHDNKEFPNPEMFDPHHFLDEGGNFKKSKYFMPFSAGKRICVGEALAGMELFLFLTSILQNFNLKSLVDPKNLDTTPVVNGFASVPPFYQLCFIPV
Protocol: (§2) The following substrates were used: CYP1A phenacetin, CYP2B6 bupropion, CYP2C8 paclitaxel and amodiaquine, CYP2C9 diclofenac, CYP2C19 omeprazole, CYP2D6 dextromethorphan, CYP3A midazolam and testosterone. At the end of the incubation, the formation of metabolite was monitored by HPLC-MS/MS as the peak area response.

CYP2C9 [6] = target: T4, CYP2C9; experiment: CYP inhibition found during development of C21, CYP 2C9; assay type: in vitro ADME; conditions: statement in background
CYP2C19 = target: T5, CYP2C19 (Homo sapiens, UniProt P33261); experiment: CYP inhibition in human liver microsomes, CYP2C19; assay type: in vitro ADME; conditions: substrate omeprazole; for inhibition at 10 µM: probe omeprazole, read-out: CYP2C19 Inh %
T5 construct: incubated with human liver microsomes; tissue Eurofins ITEMG232; host or cells: human liver microsomes
T5 sequence (P33261 whole entry): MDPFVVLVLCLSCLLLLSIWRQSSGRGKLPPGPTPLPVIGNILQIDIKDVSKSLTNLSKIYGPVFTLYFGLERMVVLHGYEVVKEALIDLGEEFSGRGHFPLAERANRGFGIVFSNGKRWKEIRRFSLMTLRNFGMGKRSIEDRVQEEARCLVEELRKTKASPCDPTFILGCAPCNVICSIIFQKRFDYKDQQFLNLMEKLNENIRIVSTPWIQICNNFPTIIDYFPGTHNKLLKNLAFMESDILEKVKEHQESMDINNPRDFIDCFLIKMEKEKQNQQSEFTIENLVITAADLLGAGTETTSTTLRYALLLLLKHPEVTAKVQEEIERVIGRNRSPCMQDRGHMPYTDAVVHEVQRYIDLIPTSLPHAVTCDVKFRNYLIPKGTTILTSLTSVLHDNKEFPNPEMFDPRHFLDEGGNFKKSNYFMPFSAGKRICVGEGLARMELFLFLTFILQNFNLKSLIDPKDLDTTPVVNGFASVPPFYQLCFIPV
Protocol: as §2

CYP2B6 = target: T6, CYP2B6 (Homo sapiens, UniProt P20813); experiment: CYP inhibition in human liver microsomes, CYP2B6; assay type: in vitro ADME; conditions: probe bupropion, substrate bupropion, read-out: CYP2B6 Inh %
T6 construct: incubated with human liver microsomes; tissue Eurofins ITEMG232; host or cells: human liver microsomes
T6 sequence (P20813 1-491): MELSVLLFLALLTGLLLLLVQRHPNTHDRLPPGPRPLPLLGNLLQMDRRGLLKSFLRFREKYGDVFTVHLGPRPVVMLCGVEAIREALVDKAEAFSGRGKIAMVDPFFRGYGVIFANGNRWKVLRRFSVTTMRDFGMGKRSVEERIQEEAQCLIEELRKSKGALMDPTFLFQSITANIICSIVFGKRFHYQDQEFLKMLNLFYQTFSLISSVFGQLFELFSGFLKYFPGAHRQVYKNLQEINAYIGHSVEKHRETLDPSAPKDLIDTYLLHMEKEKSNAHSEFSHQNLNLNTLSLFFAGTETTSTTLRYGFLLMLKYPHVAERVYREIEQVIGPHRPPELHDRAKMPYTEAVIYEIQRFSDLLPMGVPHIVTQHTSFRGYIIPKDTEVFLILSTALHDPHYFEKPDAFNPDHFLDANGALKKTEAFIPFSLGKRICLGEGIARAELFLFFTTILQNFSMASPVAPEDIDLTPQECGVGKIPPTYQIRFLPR
Protocol: as §2

CYP3A4 [7] = target: T3, CYP3A4; experiment: CYP inhibition in human liver microsomes, CYP3A4 (midazolam); assay type: in vitro ADME; parameters: incubated with human liver microsomes; tissue Eurofins ITEMG232; host or cells: human liver microsomes; conditions: probe midazolam, substrate midazolam, read-out: CYP3A4 midazolam Inh %
Protocol: as §2

CYP2C8 = target: T7, CYP2C8 (Homo sapiens, UniProt P10632); experiment: CYP inhibition in human liver microsomes, CYP2C8; assay type: in vitro ADME; conditions: probe paclitaxel and amodiaquine, substrate paclitaxel and amodiaquine, read-out: CYP2C8 Inh %
T7 construct: incubated with human liver microsomes; tissue Eurofins ITEMG232; host or cells: human liver microsomes
T7 sequence (P10632 1-490): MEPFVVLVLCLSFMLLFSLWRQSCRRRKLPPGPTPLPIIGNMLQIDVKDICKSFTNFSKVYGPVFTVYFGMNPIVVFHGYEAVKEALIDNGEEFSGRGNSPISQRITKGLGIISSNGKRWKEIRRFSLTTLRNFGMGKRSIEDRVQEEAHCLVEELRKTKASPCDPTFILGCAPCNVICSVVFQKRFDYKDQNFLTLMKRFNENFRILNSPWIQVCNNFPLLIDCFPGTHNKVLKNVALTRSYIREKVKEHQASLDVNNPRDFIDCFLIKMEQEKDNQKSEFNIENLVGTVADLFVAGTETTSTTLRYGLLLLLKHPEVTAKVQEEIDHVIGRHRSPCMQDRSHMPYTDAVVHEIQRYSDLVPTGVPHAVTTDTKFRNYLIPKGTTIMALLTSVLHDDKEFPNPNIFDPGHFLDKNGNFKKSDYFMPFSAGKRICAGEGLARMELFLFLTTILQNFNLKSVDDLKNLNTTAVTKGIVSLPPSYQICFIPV
Protocol: as §2

CYP1A = target: T8, CYP1A (Homo sapiens, UniProt P05177); experiment: CYP inhibition in human liver microsomes, CYP1A; assay type: in vitro ADME; conditions: probe phenacetin, substrate phenacetin, read-out: CYP1A Inh %
T8 construct: incubated with human liver microsomes; tissue Eurofins ITEMG232; host or cells: human liver microsomes
T8 sequence (P05177 1-516): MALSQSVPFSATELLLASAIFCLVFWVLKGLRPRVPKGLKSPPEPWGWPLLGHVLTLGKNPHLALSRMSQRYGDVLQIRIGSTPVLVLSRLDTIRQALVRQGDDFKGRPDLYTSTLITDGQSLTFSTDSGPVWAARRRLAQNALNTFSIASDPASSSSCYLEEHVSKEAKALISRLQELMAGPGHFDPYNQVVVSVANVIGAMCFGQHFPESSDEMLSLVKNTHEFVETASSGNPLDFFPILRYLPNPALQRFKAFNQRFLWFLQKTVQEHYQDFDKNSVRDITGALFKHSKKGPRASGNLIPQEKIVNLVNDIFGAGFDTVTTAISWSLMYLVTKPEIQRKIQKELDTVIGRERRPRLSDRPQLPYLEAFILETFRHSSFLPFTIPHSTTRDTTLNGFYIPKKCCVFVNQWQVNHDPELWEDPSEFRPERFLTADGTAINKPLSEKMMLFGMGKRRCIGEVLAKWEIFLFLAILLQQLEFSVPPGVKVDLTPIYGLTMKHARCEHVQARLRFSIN
Protocol: as §2

CYP2D6 = target: T9, CYP2D6 (Homo sapiens, UniProt P10635); experiment: CYP inhibition in human liver microsomes, CYP2D6; assay type: in vitro ADME; conditions: probe dextromethorphan, substrate dextromethorphan, read-out: CYP2D6 Inh %
T9 construct: incubated with human liver microsomes; tissue Eurofins ITEMG232; host or cells: human liver microsomes
T9 sequence (P10635 whole entry): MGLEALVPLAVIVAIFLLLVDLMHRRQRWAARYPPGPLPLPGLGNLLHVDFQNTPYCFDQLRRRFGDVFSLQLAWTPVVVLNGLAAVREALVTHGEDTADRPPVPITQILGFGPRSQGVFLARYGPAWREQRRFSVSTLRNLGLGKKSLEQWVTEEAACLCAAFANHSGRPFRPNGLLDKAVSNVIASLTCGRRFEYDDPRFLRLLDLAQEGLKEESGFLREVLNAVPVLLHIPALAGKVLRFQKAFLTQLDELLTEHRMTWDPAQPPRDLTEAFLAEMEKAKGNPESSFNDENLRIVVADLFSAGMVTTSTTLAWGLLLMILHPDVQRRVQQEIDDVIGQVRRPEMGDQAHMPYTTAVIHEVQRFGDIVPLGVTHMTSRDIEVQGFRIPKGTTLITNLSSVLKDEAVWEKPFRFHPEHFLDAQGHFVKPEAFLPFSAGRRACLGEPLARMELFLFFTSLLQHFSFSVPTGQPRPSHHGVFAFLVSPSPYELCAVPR
Protocol: as §2

CYP3A4&5 = experiment: CYP inhibition in human liver microsomes, CYP3A4&5 (testosterone); assay type: in vitro ADME; conditions: probe testosterone, substrate testosterone, read-out: CYP3A4&5 testosterone Inh %
Protocol: as §2

Compound: Cc1nccn1Cc1ccc(-c2cc(CC(C)C)sc2S(=O)(=O)NC(=O)NCCC(F)(F)F)nc1 [Example 19, 3-(5-Isobutyl-3-{5-[(2-methyl-1H-imidazol-1-yl)methyl]-2-pyridyl}-2-thienylsulfonyl)-1-(3,3,3-trifluoropropyl)urea]
- IC50 [1]: 127 nM
- IC50 [2]: 83000 nM

Compound: CCCCOC(=O)NS(=O)(=O)c1sc(CC(C)C)cc1-c1ccc(Cn2ccnc2)cc1 [Example C21, N-butyloxycarbonyl-3-(4-imidazol-1-ylmethylphenyl)-5-isobutylthiophene-2-sulfon-amide]
- metabolic hydrolysis [3]: rapidly hydrolysed to an inactive sulfonamide metabolite
- inhibition of CYP 3A4 (CYP3A4 [4]): potent inhibitor
- CYP2C9 Inh % (CYP2C9 [5]; 10 μM): 99.0%
- inhibition of CYP 2C9 (CYP2C9 [6]): potent inhibitor
- CYP2C19 Inh % (CYP2C19; 10 μM): 96.0%

Compound: Cc1nccn1Cc1ccc(-c2cc(CC(C)C)sc2S(=O)(=O)NC(=O)NCc2cc(F)cc(F)c2)nc1 [Example 23, 1-[(3,5-Difluorophenyl)methyl]-3-(5-isobutyl-3-{5-[(2-methyl-1H-imidazol-1-yl)methyl]-2-pyridyl}-2-thienylsulfonyl)urea]
- IC50 [1]: 357 nM
- IC50 [2]: 16000 nM

Compound: Cc1cn(Cc2ccc(-c3cc(CC(C)C)sc3S(=O)(=O)NC(=O)NCc3ccccn3)cc2)c(C)n1 [Example 11, 3-(3-{p-[(2,4-Dimethyl-1H-imidazol-1-yl)methyl]phenyl}-5-isobutyl-2-thienylsulfonyl)-1-[(2-pyridyl)methyl]urea]
- inhibition at 10 µM (CYP2B6): 14%
- inhibition at 10 µM (CYP3A4 [7]): 22%
- IC50 [1]: 119 nM
- inhibition at 10 µM (CYP2C8): 34%
- inhibition at 10 µM (CYP1A): 5%
- inhibition at 10 µM (CYP2C9 [5]): 29%
- inhibition at 10 µM (CYP2D6): 44%
- IC50 [2]: 18000 nM
- inhibition at 10 µM (CYP2C19): 53%
- inhibition at 10 µM (CYP3A4&5): 17%

Compound: Cc1cn(Cc2ccc(-c3cc(CC(C)C)sc3S(=O)(=O)NC(=O)NCc3ccccc3)cc2)c(C)n1 [Example 10, 1-Benzyl-3-(3-{p-[(2,4-dimethyl-1H-imidazol-1-yl)methyl]phenyl}-5-isobutyl-2-thienylsulfonyl)urea]
- inhibition at 10 µM (CYP2B6): 15%
- inhibition at 10 µM (CYP3A4 [7]): 25%
- IC50 [1]: 90.6 nM
- inhibition at 10 µM (CYP2C8): 48%
- inhibition at 10 µM (CYP1A): -5%
- inhibition at 10 µM (CYP2C9 [5]): 50%
- inhibition at 10 µM (CYP2D6): 31%
- IC50 [2]: 6000 nM
- inhibition at 10 µM (CYP2C19): 61%
- inhibition at 10 µM (CYP3A4&5): 29%

Other lines, results leading:

- inhibition at 10 µM (CYP2B6): 20%
- inhibition at 10 µM (CYP3A4 [7]): 65%
- IC50 [1]: 9.5 nM
- inhibition at 10 µM (CYP2C8): 83%
- inhibition at 10 µM (CYP1A): 29%
- inhibition at 10 µM (CYP2C9 [5]): 48%
- inhibition at 10 µM (CYP2D6): 22%
- IC50 [2]: 58000 nM
- inhibition at 10 µM (CYP2C19): 54%
- inhibition at 10 µM (CYP3A4&5): 18%
Compound: Cc1nccn1Cc1ccc(-c2cc(CC(C)C)sc2S(=O)(=O)NC(=O)N(C)Cc2ccccn2)cc1F [Example 17, 3-(3-{3-Fluoro-4-[(2-methyl-1H-imidazol-1-yl)methyl]phenyl}-5-isobutyl-2-thienylsulfonyl)-1-methyl-1-[(2-pyridyl)methyl]urea]

- inhibition at 10 µM (CYP2B6): 88%
- inhibition at 10 µM (CYP3A4 [7]): 91%
- IC50 [1]: 7.4 nM
- inhibition at 10 µM (CYP2C8): 65%
- inhibition at 10 µM (CYP1A): 23%
- inhibition at 10 µM (CYP2C9 [5]): 79%
- inhibition at 10 µM (CYP2D6): 88%
- IC50 [2]: 57000 nM
- inhibition at 10 µM (CYP2C19): 91%
- inhibition at 10 µM (CYP3A4&5): 58%
Compound: Cc1nccn1Cc1ccc(-c2cc(CC(C)C)sc2S(=O)(=O)NC(=O)NCCc2c[nH]cn2)cc1F [Example 16, 1-(3-{3-Fluoro-4-[(2-methyl-1H-imidazol-1-yl)methyl]phenyl}-5-isobutyl-2-thienylsulfonyl)-3-[2-(1H-imidazol-4-yl)ethyl]urea]

- IC50 [1]: 16.9 nM
- IC50 [2]: 51000 nM
Compound: Cc1nccn1Cc1ncc(-c2cc(CC(C)C)sc2S(=O)(=O)NC(=O)NCc2ccccn2)cn1 [Example 22, 3-(5-Isobutyl-3-{2-[(2-methyl-1H-imidazol-1-yl)methyl]-5-pyrimidinyl}-2-thienylsulfonyl)-1-[(2-pyridyl)methyl]urea]

- IC50 [1]: 2.9 nM
- IC50 [2]: 5000 nM
Compound: CC(C)Cc1cc(-c2ccc(Cn3ccnc3C(C)C)c(F)c2)c(S(=O)(=O)NC(=O)NCCCC(F)(F)F)s1 [Example 42, 1-{[3-(3-fluoro-4-{[2-(propan-2-yl)-1H-imidazol-1-yl]methyl}phenyl)-5-(2-methylpropyl)thiophen-2-yl]sulfonyl}-3-(4,4,4-trifluorobutyl)urea trifluoroacetic acid]

Source: patent publication US12435072B2, “Compounds” (Vicore Pharma AB, priority 2019, dated 2025)
